Assay results taken from patent publication US20250145606A1 (Arcus Biosciences, Inc., priority 2023, published 2025).

Tests used:
[1] = test system: Phospho-KIT (Y703) in M07e cells; experiment: Phospho-KIT (Y703) cellular assay in M07e cells; format: cell-based; details: M-07e; Phospho-KIT (Y703), M07e cells; read-out: M07e Cell IC50
Procedure, shortened: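 Serum-starved M07e cells preincubated 50 min at 37° C with 11-point half-log compound titration, then stimulated 10 min with SCF at 90.9 ng/mL final. Fixed, permeabilized cells stained for phospho-KIT Y703 and read by flow cytometry (live-gated geometric mean); IC50 by 4-parameter fit normalized to DMSO and positive control.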

FLT3 = FLT3 (Homo sapiens (Human), UniProt P36888); experiment: Inhibition of FLT3 kinase activity (HTRF KinEASE-TK); format: biochemical; details: biochemical, HTRF KinEASE-TK
FLT3, sequence (P36888 27-993): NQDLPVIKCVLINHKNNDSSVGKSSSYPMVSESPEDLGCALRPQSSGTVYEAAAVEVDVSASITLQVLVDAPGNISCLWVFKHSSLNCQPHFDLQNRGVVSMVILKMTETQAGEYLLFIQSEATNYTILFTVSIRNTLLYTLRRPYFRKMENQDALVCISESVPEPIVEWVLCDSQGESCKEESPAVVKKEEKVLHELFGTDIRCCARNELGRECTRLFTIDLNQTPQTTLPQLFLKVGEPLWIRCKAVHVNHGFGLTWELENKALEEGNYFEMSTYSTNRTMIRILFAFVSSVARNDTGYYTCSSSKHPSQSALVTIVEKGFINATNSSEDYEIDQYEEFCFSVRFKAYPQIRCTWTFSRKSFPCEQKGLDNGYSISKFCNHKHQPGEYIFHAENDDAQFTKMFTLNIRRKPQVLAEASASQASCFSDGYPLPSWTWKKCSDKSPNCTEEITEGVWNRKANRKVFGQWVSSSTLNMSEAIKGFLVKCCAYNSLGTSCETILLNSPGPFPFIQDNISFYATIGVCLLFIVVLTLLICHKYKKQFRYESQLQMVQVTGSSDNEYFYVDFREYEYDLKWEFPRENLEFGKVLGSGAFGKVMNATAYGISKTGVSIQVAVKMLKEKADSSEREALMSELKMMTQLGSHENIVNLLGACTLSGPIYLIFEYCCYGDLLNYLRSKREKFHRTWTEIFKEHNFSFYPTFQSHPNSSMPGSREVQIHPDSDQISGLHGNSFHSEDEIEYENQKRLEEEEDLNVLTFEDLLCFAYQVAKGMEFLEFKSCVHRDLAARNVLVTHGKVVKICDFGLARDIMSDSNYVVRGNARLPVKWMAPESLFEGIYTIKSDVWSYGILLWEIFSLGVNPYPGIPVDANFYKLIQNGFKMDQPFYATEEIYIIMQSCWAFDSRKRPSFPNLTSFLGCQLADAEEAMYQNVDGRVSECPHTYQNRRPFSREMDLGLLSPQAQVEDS
Procedure, shortened: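 FLT3 tyrosine kinase activity was measured with the HTRF KinEASE-TK kit by following phosphorylation of a biotinylated TK peptide. After the 45 min reaction, 10 μL of detection mix was added: 0.2 μM (2×) Streptavidin-XL665 and 2 μM (2×) TK-Antibody-Cryptate in detection buffer. After 60 min, TR-FRET was read on an Envision as the 665 nm/620 nm emission ratio with 320 nm excitation.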

PDGFRβ = PDGFRβ (Homo sapiens (Human), UniProt P09619); experiment: Inhibition of PDGFRβ kinase activity (HTRF KinEASE-TK); details: biochemical, HTRF KinEASE-TK
PDGFRβ, sequence (P09619 33-1106): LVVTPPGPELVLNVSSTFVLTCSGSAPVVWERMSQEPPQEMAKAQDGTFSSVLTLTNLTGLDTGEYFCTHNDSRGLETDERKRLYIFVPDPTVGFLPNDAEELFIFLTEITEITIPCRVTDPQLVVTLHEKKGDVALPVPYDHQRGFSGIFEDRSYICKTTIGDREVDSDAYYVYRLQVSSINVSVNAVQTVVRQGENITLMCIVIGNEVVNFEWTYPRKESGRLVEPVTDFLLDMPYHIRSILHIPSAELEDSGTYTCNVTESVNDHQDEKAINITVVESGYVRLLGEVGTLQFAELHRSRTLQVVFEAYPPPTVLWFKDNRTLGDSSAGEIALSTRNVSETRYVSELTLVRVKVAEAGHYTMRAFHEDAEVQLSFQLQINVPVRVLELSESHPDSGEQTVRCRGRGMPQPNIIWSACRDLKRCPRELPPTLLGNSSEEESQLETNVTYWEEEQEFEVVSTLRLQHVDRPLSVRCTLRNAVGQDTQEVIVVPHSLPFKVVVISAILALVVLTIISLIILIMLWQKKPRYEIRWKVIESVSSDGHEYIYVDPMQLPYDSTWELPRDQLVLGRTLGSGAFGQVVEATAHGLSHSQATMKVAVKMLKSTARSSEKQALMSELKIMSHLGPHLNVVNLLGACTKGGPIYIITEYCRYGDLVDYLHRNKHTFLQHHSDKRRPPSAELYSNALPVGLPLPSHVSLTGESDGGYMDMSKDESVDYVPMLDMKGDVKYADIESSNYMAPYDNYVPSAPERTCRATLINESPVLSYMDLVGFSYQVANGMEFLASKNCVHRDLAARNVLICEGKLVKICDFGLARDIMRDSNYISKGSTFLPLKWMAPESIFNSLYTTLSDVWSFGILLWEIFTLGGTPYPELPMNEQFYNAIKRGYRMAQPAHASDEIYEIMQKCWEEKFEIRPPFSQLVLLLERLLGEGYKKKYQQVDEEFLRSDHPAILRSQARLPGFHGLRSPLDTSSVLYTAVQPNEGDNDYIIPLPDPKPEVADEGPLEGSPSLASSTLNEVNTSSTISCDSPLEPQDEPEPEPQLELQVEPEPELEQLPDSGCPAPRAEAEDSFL
Procedure, shortened: (§1)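 Phosphorylation of biotinylated TK peptide read by HTRF (665/620 nm ratio) after 120 min at rt, following 1 h enzyme–compound preincubation. ATP (2× mix): 20 μM CSF1R, 16 μM c-Kit, 40 μM PDGFRβ, 1 μM PDGFRα; MgCl2 10 mM except c-Kit 5 mM. 22-point 1:2 titration; four-parameter IC50.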

c-Kit = c-Kit (Homo sapiens (Human), UniProt P10721); experiment: Inhibition of c-Kit kinase activity (HTRF KinEASE-TK); format: biochemical; details: biochemical, HTRF KinEASE-TK
c-Kit, sequence (P10721 26-976): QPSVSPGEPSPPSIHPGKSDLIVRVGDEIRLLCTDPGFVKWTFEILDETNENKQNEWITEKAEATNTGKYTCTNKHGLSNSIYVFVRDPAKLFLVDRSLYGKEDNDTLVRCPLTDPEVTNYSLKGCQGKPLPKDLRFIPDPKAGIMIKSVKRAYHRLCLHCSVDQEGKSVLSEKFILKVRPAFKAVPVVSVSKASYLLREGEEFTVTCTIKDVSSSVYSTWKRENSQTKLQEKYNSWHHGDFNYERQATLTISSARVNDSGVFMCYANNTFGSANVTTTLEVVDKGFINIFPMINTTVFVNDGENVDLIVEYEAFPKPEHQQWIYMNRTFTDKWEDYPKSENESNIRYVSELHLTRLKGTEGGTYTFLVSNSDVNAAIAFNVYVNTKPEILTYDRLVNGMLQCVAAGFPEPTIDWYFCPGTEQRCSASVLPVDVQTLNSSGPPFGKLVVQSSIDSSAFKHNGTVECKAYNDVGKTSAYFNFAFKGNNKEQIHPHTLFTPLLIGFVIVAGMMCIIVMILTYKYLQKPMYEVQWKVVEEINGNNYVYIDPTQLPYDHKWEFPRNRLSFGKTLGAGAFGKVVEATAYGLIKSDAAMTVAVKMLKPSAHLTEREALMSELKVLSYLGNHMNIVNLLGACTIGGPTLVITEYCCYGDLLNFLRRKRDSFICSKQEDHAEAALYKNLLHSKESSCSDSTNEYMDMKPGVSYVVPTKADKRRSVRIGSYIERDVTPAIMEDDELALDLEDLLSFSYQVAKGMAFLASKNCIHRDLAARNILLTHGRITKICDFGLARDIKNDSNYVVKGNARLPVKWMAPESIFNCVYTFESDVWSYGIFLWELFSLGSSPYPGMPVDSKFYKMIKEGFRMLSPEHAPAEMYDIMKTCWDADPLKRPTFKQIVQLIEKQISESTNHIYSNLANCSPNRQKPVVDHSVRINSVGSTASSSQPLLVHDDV
Procedure, shortened: as §1

PDGFRα = PDGFRα (Homo sapiens (Human), UniProt P16234); experiment: Inhibition of PDGFRα kinase activity (HTRF KinEASE-TK); details: biochemical, HTRF KinEASE-TK
PDGFRα, sequence (P16234 24-1089): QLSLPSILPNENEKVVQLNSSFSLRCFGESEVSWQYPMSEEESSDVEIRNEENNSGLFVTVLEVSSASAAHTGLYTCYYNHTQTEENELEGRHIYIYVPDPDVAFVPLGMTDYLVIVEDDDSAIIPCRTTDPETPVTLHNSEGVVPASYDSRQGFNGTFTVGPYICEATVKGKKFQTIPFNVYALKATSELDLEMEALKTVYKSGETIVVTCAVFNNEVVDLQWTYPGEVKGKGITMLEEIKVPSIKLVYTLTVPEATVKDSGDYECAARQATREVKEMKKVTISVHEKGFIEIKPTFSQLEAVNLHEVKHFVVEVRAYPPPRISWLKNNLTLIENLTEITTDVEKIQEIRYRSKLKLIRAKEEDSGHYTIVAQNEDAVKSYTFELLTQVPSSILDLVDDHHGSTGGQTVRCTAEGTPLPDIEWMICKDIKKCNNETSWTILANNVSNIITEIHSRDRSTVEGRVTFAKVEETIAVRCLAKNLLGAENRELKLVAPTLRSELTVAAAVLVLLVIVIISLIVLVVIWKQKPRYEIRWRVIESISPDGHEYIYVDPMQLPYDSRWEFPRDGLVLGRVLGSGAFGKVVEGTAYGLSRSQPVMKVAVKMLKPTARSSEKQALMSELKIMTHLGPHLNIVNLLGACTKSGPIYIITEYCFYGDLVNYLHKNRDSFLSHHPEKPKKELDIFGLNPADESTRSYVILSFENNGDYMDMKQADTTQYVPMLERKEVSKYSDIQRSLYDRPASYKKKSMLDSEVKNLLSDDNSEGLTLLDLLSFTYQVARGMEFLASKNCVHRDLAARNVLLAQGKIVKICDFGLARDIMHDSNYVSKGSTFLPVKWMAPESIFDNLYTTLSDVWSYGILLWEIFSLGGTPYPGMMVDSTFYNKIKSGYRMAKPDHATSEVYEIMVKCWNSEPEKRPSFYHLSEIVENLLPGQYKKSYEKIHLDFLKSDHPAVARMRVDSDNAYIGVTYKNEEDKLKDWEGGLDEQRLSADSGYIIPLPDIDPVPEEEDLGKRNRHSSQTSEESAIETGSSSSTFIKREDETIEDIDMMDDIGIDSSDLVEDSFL
Procedure, shortened: as §1

CSF1R = CSF1R (Homo sapiens (Human), UniProt P07333); experiment: Inhibition of CSF1R kinase activity (HTRF KinEASE-TK); details: biochemical, HTRF KinEASE-TK
CSF1R, sequence (P07333 20-972): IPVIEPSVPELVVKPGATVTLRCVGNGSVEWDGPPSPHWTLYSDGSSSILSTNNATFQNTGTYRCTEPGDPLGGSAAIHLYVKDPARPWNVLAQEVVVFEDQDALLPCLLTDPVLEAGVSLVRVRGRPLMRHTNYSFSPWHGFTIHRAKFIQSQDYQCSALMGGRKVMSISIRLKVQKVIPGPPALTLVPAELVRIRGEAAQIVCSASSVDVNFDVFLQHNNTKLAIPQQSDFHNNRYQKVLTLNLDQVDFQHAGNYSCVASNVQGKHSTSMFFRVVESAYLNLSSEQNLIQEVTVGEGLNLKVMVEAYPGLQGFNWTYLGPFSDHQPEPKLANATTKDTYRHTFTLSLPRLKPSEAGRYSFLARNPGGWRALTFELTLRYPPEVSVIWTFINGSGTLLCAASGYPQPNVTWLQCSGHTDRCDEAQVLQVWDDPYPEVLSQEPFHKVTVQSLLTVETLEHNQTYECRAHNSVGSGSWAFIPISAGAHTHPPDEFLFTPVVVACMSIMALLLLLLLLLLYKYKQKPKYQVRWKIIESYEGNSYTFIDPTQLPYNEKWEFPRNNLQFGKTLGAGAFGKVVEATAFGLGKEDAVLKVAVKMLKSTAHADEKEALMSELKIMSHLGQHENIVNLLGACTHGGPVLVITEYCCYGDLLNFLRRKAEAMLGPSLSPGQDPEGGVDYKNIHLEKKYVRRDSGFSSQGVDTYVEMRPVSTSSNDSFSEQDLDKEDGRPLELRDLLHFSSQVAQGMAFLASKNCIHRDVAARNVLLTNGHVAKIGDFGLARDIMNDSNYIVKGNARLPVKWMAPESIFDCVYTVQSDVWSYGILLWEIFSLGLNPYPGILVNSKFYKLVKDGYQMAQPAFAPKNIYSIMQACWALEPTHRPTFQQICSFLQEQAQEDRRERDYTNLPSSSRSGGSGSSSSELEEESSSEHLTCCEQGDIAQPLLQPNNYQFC
Procedure, shortened: as §1

Structure (SMILES) | IC50 [1] | IC50 (FLT3) | IC50 (PDGFRβ) | IC50 (c-Kit) | IC50 (PDGFRα) | IC50 (CSF1R)
Cc1cc(F)c(C(=O)Nc2ccc3c(n2)COCC3)cc1NC(=O)c1cnc(N)s1 [Example 114, 2-Amino-N-[5-(6,8-dihydro-5H-pyrano[3,4-b]pyridin-2-ylcarbamoyl)-4-fluoro-2-methylphenyl]-1,3-thiazole-5-carboxamide] | < 0.1 µM | > 1 µM | 0.1 to 1 µM | < 0.1 µM | 0.1 to 1 µM | 0.1 to 1 µM
Cc1ncc(C(=O)Nc2cc(C(=O)Nc3cnc(OCC(F)(F)F)cn3)c(F)cc2C)s1 [Example 89, N-{5-[N-5-(2,2,2-trifluoroethoxy)-2-pyrazinylcarbamoyl]-4-fluoro-2-tolyl}-2-methyl-1,3-thiazole-5-carboxamide] | < 0.1 µM | > 1 µM | > 1 µM | < 0.1 µM | > 1 µM | > 1 µM
CC(C)Oc1ccc(NC(=O)c2cc(NC(=O)c3cnc(N)s3)c(F)cc2F)nc1 [Example 218, 2-Amino-N-[2,4-difluoro-5-[(5-propan-2-yloxypyridin-2-yl)carbamoyl]phenyl]-1,3-thiazole-5-carboxamide] | < 0.1 µM | > 1 µM | > 1 µM | < 0.1 µM | > 1 µM | > 1 µM
Cc1ncc(C(=O)Nc2cc(C(=O)Nc3cnc(N4CCC[C@@H]4C)cn3)c(F)cc2C)s1 [Example 83, N-(5-{N-5-[(S)-2-methyl-1-pyrrolidinyl]-2-pyrazinylcarbamoyl}-4-fluoro-2-tolyl)-2-methyl-1,3-thiazole-5-carboxamide] | < 0.1 µM | > 1 µM | > 1 µM | < 0.1 µM | > 1 µM | > 1 µM
Cc1cc(F)c(C(=O)NCC(F)(F)F)cc1NC(=O)c1cnc(N)s1 [Example 122, 2-Amino-N-[4-fluoro-2-methyl-5-(2,2,2-trifluoroethylcarbamoyl)phenyl]-1,3-thiazole-5-carboxamide] | < 0.1 µM | > 1 µM | > 1 µM | < 0.1 µM | > 1 µM | > 1 µM

Now from value to compound:

IC50 [1] | IC50 (FLT3) | IC50 (PDGFRβ) | IC50 (c-Kit) | IC50 (PDGFRα) | IC50 (CSF1R) | Structure (SMILES)
< 0.1 µM | > 1 µM | 0.1 to 1 µM | < 0.1 µM | 0.1 to 1 µM | > 1 µM | Cc1cc(F)c(C(=O)Nc2ccn(C3CC(F)(F)C3)n2)cc1NC(=O)c1cnc(N)s1 [Example 139, 2-Amino-N-[5-[[1-(3,3-difluorocyclobutyl)pyrazol-3-yl]carbamoyl]-4-fluoro-2-methylphenyl]-1,3-thiazole-5-carboxamide]
< 0.1 µM | > 1 µM | 0.1 to 1 µM | < 0.1 µM | 0.1 to 1 µM | 0.1 to 1 µM | Cc1cc(F)c(C(=O)Nc2ccc(OC3CC3)nn2)cc1NC(=O)c1cnc(N)s1 [Example 258, 2-Amino-N-[5-[(6-cyclopropyloxypyridazin-3-yl)carbamoyl]-4-fluoro-2-methylphenyl]-1,3-thiazole-5-carboxamide]
< 0.1 µM | > 1 µM | > 1 µM | < 0.1 µM | > 1 µM | > 1 µM | Cc1ccc(NC(=O)c2cc(NC(=O)c3cnc(N)s3)c(C)cc2F)nc1 [Example 133, 2-Amino-N-[4-fluoro-2-methyl-5-[(5-methylpyridin-2-yl)carbamoyl]phenyl]-1,3-thiazole-5-carboxamide]
< 0.1 µM | > 1 µM | 0.1 to 1 µM | < 0.1 µM | 0.1 to 1 µM | > 1 µM | Cc1cc(F)c(C(=O)Nc2ccn(C3CCC3)n2)cc1NC(=O)c1cnc(N)s1 [Example 155, 2-Amino-N-[5-[(1-cyclobutylpyrazol-3-yl)carbamoyl]-4-fluoro-2-methylphenyl]-1,3-thiazole-5-carboxamide]
< 0.1 µM | > 1 µM | 0.1 to 1 µM | < 0.1 µM | > 1 µM | 0.1 to 1 µM | COc1ccnc(NC(=O)c2cc(NC(=O)c3cnc(N)s3)c(C)cc2F)c1 [Example 189, 2-Amino-N-[4-fluoro-5-[(4-methoxypyridin-2-yl)carbamoyl]-2-methylphenyl]-1,3-thiazole-5-carboxamide]
